Test results: patent publication US8969583B2, “3-phenyl-5-ureidoisothiazole-4-carboximide and 3-amino-5-phenylisothiazole derivatives as kinase inhibitors” (Allergan, Inc., priority 2011, dated 2015)

Key:
[1] = molecular target: VEGFR2 (purified cytoplasmic domain KDR protein) (Homo sapiens (Human), UniProt P35968); experiment: VEGFR2 Kinase Assay (biochemical KDR kinase assay, ELISA); details: 2.7 μM ATP, 15 minute incubation at 30° C.; read-out: VEGFR2 Enzyme Assay (IC50 nM)
Method: Biochemical KDR kinase assays were performed in 96 well microtiter plates that were coated overnight with 75 μg/well of poly-Glu-Tyr (4:1) in 10 mM Phosphate Buffered Saline (PBS), pH 7.4. The coated plates were washed with 2 mls per well PBS+0.05% Tween-20 (PBS-T), blocked by incubation with PBS containing 1% BSA, then washed with 2 mls per well PBS-T prior to starting the reaction. […] Reactions were initiated by the addition 20 ul per well of kinase buffer containing 200-300 ng purified cytoplasmic domain KDR protein (BPS Bioscience, San Diego, Calif.). Following a 15 minute incubation at 30° C., the reactions were washed 2 mls per well PBS-T. 100 μl of a monoclonal anti-phosphotyrosine antibody-peroxidase conjugate diluted 1:10,000 in PBS-T was added to the wells for 30 minutes. Following a 2 mls per well wash with PBS-Tween-20, 100 μl of O-Phenylenediamine Dihydrochloride in phosphate-citrate buffer, containing urea hydrogen peroxide, was added to the wells for 7-10 minutes as a colorimetric substrate for the peroxidase. The reaction was terminated by the addition of 100 μl of 2.5NH2SO4 to each well and read using a microplate ELISA reader set at 492 nm. IC50 values for compound inhibition were calculated directly from graphs of optical density (arbitrary units) versus compound concentration following subtraction of blank values.

VEGFR1 = VEGFR1 (Homo sapiens (Human), UniProt P17948); experiment: VEGFR1 Enzyme Assay; assay type: biochemical
Chain of VEGFR1 (P17948 27-1338, species assumed): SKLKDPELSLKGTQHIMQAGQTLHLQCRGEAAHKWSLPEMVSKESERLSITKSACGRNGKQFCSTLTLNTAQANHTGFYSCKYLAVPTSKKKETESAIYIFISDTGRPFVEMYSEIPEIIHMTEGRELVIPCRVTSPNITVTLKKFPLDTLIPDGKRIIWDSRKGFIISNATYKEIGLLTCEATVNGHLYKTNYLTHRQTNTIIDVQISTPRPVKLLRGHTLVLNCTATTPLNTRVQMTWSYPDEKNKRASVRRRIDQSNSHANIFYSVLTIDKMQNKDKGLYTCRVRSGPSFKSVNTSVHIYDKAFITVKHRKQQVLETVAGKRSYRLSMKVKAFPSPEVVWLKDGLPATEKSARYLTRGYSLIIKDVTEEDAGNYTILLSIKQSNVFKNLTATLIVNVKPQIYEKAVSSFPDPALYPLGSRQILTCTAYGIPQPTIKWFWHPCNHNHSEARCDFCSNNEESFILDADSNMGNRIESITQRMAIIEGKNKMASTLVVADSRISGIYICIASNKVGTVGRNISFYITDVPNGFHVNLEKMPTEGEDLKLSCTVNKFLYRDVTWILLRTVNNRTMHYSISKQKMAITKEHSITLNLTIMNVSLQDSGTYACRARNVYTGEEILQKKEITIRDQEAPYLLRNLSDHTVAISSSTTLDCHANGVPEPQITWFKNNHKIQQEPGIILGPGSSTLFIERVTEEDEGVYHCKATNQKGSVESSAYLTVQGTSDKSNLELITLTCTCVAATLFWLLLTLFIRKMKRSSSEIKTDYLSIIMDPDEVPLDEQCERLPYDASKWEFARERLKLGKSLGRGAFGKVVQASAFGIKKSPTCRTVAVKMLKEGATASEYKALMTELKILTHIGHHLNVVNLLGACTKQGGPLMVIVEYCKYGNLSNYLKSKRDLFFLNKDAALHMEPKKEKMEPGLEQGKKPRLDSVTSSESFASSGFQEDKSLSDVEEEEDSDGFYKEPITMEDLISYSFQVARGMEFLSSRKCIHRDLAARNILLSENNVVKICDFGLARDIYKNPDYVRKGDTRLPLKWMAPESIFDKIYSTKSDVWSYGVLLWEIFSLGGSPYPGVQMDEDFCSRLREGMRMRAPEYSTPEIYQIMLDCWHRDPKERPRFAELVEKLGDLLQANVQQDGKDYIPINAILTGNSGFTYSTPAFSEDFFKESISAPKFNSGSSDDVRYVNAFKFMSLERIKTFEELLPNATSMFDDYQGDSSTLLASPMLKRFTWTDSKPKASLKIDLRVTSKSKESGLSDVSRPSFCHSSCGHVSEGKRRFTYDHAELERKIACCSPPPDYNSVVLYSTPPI

[2] = molecular target: PDGFRβ (purified cytoplasmic domain PDGFR-b protein) (Homo sapiens (Human), UniProt P09619); experiment: PDGFRβ Kinase Assay (biochemical, ELISA); details: 36 μM ATP, 60 minute incubation at 30° C.; read-out: PDGFRβ Enzyme Assay (IC50 nM)
Chain of PDGFRβ (purified cytoplasmic domain PDGFR-b protein) (P09619 554-1106): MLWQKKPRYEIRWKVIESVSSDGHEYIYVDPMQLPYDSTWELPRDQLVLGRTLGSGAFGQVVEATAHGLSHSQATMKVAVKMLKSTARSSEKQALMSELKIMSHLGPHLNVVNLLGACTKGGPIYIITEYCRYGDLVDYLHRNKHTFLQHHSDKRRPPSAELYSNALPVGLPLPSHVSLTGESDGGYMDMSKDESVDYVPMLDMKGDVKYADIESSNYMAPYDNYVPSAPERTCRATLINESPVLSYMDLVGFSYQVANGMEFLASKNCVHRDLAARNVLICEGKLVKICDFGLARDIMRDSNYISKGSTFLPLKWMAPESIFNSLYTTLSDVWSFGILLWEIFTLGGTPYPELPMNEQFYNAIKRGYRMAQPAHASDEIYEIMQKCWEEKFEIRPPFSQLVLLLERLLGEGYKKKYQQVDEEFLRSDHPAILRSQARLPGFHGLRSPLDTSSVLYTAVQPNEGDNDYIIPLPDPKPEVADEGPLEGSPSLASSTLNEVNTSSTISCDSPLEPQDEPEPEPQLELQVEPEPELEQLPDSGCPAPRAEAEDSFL
Method: Biochemical PDGFRβ kinase assays were performed in 96 well microtiter plates that were coated overnight with 75 μg of poly-Glu-Tyr (4:1) in 10 mM Phosphate Buffered Saline (PBS), pH 7.4. The coated plates were washed with 2 mls per well PBS+0.05% Tween-20 (PBS-T), blocked by incubation with PBS containing 1% BSA, then washed with 2 mls per well PBS-T prior to starting the reaction. Reactions were carried out in 100 μL reaction volumes containing 36 μM ATP in kinase buffer (50 mM Hepes buffer pH 7.4, 20 mM MgCl2, 0.1 mM MnCl2 and 0.2 mM Na3VO4). Test compounds were reconstituted in 100% DMSO and added to the reaction to give a final DMSO concentration of 5%. Reactions were initiated by the addition 20 ul per well of kinase buffer containing 200-300 ng purified cytoplasmic domain PDGFR-b protein (Millipore). Following a 60 minute incubation at 30° C., the reactions were washed 2 mls per well PBS-T. 100 μl of a monoclonal anti-phosphotyrosine antibody-peroxidase conjugate diluted 1:10,000 in PBS-T was added to the wells for 30 minutes. Following a 2 mls per well wash with PBS-Tween-20, 100 μl of O-Phenylenediamine Dihydrochloride in phosphate-citrate buffer, containing urea hydrogen peroxide, was added to the wells for 7-10 minutes as a colorimetric substrate for the peroxidase. The reaction was terminated by the addition of 100 μl of 2.5NH2SO4 to each well and read using a microplate ELISA reader set at 492 nm. IC50 values for compound inhibition were calculated directly from graphs of optical density (arbitrary units) versus compound concentration following subtraction of blank values.

Chain of VEGFR2 (purified cytoplasmic domain KDR protein) (P35968 786-1356): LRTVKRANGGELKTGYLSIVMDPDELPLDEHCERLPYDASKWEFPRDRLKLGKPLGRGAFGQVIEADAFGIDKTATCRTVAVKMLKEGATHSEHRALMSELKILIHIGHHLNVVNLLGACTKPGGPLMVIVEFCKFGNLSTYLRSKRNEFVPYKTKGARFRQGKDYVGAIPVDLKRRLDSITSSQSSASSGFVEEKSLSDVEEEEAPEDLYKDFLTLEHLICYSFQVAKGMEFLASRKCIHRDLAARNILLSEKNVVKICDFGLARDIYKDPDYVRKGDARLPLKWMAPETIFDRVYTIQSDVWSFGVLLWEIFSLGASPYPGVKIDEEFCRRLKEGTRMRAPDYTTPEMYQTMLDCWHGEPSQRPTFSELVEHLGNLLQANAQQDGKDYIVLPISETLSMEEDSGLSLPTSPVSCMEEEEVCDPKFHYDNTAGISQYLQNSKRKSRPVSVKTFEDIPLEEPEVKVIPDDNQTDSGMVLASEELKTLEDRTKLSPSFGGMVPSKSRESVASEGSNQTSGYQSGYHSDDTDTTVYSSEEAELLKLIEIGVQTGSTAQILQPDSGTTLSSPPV

SMILES	IC50 [1] [nM]	IC50 (VEGFR1) [nM]	IC50 [2] [nM]
NC(=O)c1c(-c2ccc([N+](=O)[O-])cc2)nsc1NC(=O)NCCCN1CCOCC1 [Example 1, 5-({[(3-morpholin-4-ylpropyl)amino]carbonyl}amino)-3-(4-nitrophenyl)isothiazole-4-carboxamide]	> 10000	> 10000	> 10000
Cc1ccc(NC(=O)Nc2ccc(-c3nsc(NC(=O)NCCCN4CCOCC4)c3C(N)=O)cc2)cc1 [Example 7, 3-[4-({[(4-methylphenyl)amino]carbonyl}amino)phenyl]-5-({[(3-morpholin-4-ylpropyl)amino]carbonyl}amino)isothiazole-4-carboxamide]	–	–	12
Cc1ccc(F)c(NC(=O)Nc2ccc(-c3snc(N)c3C(N)=O)cc2)c1 [Example 69, 3-Amino-5-[4-({[(2-fluoro-5-methylphenyl)amino]carbonyl}amino)phenyl]isothiazole-4-carboxamide]	–	–	48
Cc1ccc(NC(=O)Nc2ccc(-c3nsc(NC(=O)NCCCO)c3C(N)=O)cc2)cc1 [Example 56, 5-({[(3-Hydroxypropyl)amino]carbonyl}amino)-3-[4-({[(4-methylphenyl)amino]carbonyl}amino)phenyl]isothiazole-4-carboxamide]	–	–	13
Cc1ccc(NC(=O)Nc2ccc(-c3nsc(N)c3C(N)=O)cc2)cc1 [Example 59, 5-Amino-3-[4-({[(4-methylphenyl)amino]carbonyl}amino)phenyl]isothiazole-4-carboxamide]	–	–	60
Cc1ccc(F)c(NC(=O)Nc2ccc(-c3nsc(NC(=O)NCCCN4CCOCC4)c3C(N)=O)cc2)c1 [Example 4, 3-[4-({[(2-fluoro-5-methylphenyl)amino]carbonyl}amino)phenyl]-5-({[(3-morpholin-4-ylpropyl)amino]carbonyl}amino)isothiazole-4-carboxamide]	–	–	47
NC(=O)c1c(-c2ccc(N)cc2)nsc1N [Example 58, 5-Amino-3-(4-aminophenyl)isothiazole-4-carboxamide]	> 10000	–	–
NC(=O)c1c(-c2ccc(NC(=O)Nc3cc(C(F)(F)F)ccc3F)cc2)nsc1NC(=O)NCCCN1CCOCC1 [Example 6, 3-{4-[({[2-fluoro-5-(trifluoromethyl)phenyl]amino}carbonyl)amino]phenyl}-5-({[(3-morpholin-4-ylpropyl)amino]carbonyl}amino)isothiazole-4-carboxamide]	–	–	24
NC(=O)c1c(-c2ccc(N)cc2)nsc1NC(=O)NCCCN1CCCC1 [Example 67, 3-(4-Aminophenyl)-5-({[(3-pyrrolidin-1-ylpropyl)amino]carbonyl}amino)isothiazole-4-carboxamide]	> 1000	–	–
NC(=O)c1c(-c2ccc(NC(=O)c3cccc(C(F)(F)F)c3)cc2)nsc1NC(=O)NCCCN1CCOCC1 [Example 11, 5-({[(3-morpholin-4-ylpropyl)amino]carbonyl}amino)-3-(4-{[3-(trifluoromethyl)benzoyl]amino}phenyl)isothiazole-4-carboxamide]	–	> 1000	> 1000
Cc1ccc(NC(=O)Nc2ccc(-c3nsc(NC(=O)NCCCC(=O)O)c3C(N)=O)cc2)cc1 [Example 48, 4-{[({4-(Aminocarbonyl)-3-[4-({[(4-methylphenyl)amino]carbonyl}amino)phenyl]isothiazol-5-yl}amino)carbonyl]amino}butanoic acid]	–	–	10
NC(=O)c1c(-c2cccc(N)c2)nsc1N [Example 62, 5-Amino-3-(3-aminophenyl)isothiazole-4-carboxamide]	> 10000	–	–
Cc1ccc(F)c(NC(=O)Nc2ccc(-c3nsc(N)c3C(N)=O)cc2)c1 [Example 60, 5-Amino-3-[4-({[(2-fluoro-5-methylphenyl)amino]carbonyl}amino)phenyl]isothiazole-4-carboxamide]	–	–	70
Cc1cccc(NC(=O)Nc2ccc(-c3nsc(NC(=O)NCCCN4CCOCC4)c3C(N)=O)cc2)c1 [Example 5, 3-[4-({[(3-methylphenyl)amino]carbonyl}amino)phenyl]-5-({[(3-morpholin-4-ylpropyl)amino]carbonyl}amino)isothiazole-4-carboxamide]	–	–	10
NC(=O)c1c(-c2ccc(N)cc2)nsc1NC(=O)NCCCN1CCOCC1 [Example 2, 3-(4-aminophenyl)-5-({[(3-morpholin-4-ylpropyl)amino]carbonyl}amino)isothiazole-4-carboxamide]	–	–	> 10000
NC(=O)c1c(-c2ccc(NC(=O)Nc3ccccc3)cc2)nsc1NC(=O)NCCCN1CCOCC1 [Example 3, 3-{4-[(anilinocarbonyl)amino]phenyl}-5-({[(3-morpholin-4-ylpropyl)amino]carbonyl}amino)isothiazole-4-carboxamide]	–	–	21
COCCCNC(=O)Nc1snc(-c2ccc(N)cc2)c1C(N)=O [Example 9, 3-(4-aminophenyl)-5-({[(3-methoxypropyl)amino]carbonyl}amino)isothiazole-4-carboxamide]	–	> 1000	> 10000
NC(=O)c1c(-c2cccc([N+](=O)[O-])c2)nsc1N [Example 61, 5-Amino-3-(3-nitrophenyl)isothiazole-4-carboxamide]	> 10000	–	–
Cc1ccc(F)c(NC(=O)Nc2ccc(-c3snc(NCCCN4CCOCC4)c3C(N)=O)cc2)c1 [Example 70, 5-[4-({[(2-Fluoro-5-methylphenyl)amino]carbonyl}amino)phenyl]-3-[(3-morpholin-4-ylpropyl)amino]isothiazole-4-carboxamide]	–	–	70
NC(=O)c1c(-c2cccc(NC(=O)Nc3ccccc3)c2)nsc1N [Example 65, 5-Amino-3-{3-[(anilinocarbonyl)amino]phenyl}isothiazole-4-carboxamide]	> 10000	–	> 1000
Cc1ccc(NC(=O)Nc2ccc(-c3nsc(NC(=O)NCCCN4CCCC4)c3C(N)=O)cc2)cc1 [Example 68, 3-[4-({[(4-Methylphenyl)amino]carbonyl}amino)phenyl]-5-({[(3-pyrrolidin-1-ylpropyl)amino]carbonyl}amino)isothiazole-4-carboxamide]	–	–	12
NC(=O)c1c(-c2cccc(NC(=O)c3cccc(C(F)(F)F)c3)c2)nsc1N [Example 64, 5-Amino-3-(3-{[3-(trifluoromethyl)benzoyl]amino}phenyl)isothiazole-4-carboxamide]	–	–	844
NC(=O)c1c(-c2ccc([N+](=O)[O-])cc2)nsc1NC(=O)N1CCCC1=O [Example 45, 3-(4-Nitro-phenyl)-5-[(2-oxo-pyrrolidine-1-carbonyl)-amino]-isothiazole-4-carboxylic acid amide]	> 10000	–	–
